From publication PMC10143232, “Dihydropyrimidone Derivatives as Thymidine Phosphorylase Inhibitors: Inhibition Kinetics, Cytotoxicity, and Molecular Docking” (Molecules, 2023)
Counter-ions that a name gives are not always drawn. Like-named read-outs stand apart in the source and are kept apart here.

Experiments:
[1] = biological target: T1, Thymidine phosphorylase (TP) (Escherichia coli, UniProt P07650); test: Thymidine phosphorylase inhibition assay (spectrophotometric, 290 nm); type: biochemical, E. coli; details: for IC50: E. coli TP, n = 3, NA: not active, read-out: Thymidine Phosphorylase Inhibitory Activity IC50 ± SEM; for inhibition at 500 µM: test compound 10 µL of 0.5 mM in 200 µL, thymidine substrate, 30 °C, pH 7.0
T1 construct: purchased Sigma Aldrich, USA
T1 sequence (P07650 whole entry): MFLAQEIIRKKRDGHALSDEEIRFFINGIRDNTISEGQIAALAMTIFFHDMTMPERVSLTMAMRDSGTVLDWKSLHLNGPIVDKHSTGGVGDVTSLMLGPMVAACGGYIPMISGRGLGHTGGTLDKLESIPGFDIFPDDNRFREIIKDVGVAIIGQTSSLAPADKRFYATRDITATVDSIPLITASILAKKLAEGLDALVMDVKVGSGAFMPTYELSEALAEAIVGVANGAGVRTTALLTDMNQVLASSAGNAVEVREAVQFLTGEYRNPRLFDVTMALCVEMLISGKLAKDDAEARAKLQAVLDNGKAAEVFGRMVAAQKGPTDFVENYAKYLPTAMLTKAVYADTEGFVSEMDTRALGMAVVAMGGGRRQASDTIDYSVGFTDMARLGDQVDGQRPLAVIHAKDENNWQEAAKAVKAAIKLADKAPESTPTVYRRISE
Method: Thymidine phosphorylase (source: E. coli, EC Number 2.4.2.4), thymidine (substrate), and potassium phosphate monobasic (as buffer) were acquired from Sigma Aldrich, USA. […] Dimethylsulfoxide (DMSO), used as a solvent, was obtained from Fisher Scientific, Schwerte, Germany.
Reaction was performed in 96-well plates and in triplicates. The 200 µL reaction mixture was comprised of 10 µL of the test compound (0.5 mM; dissolved in DMSO), 150 µL of potassium phosphate buffer (pH 7.0, 50 mM), and 20 µL of TP enzyme (0.058 unit/well). The 96-well plate containing all these reagents was then incubated at 30 °C for 10 min.
SoftMax Pro 4.8 software (Molecular Devices, San Jose, CA, USA) was used to analyse the results.
EZ-FIT, enzyme kinetics software (Perrella Scientific, Inc., Amherst, GA, USA) was used to calculate the IC50 values. In order to analyse the kinetic parameter, Grafit version 7.0 (Erithacus Software Ltd., Horley, UK) was used.

MTT cytotoxicity assay = type: cell-based; details: 3T3 mouse fibroblast cells, 48 h, test compounds 1 to 30 µM, NC: non-cytotoxic; for viability at 48 h: read-out: Cytotoxicity Studies Cell Viability (%)
Method: Cytotoxicity of active compounds were evaluated employing a standard MTT calorimetric assay. Mouse fibroblast (3T3 cell line) acquired from American Type Culture Collection (ATCC), Virginia, USA, was cultured in DMEM (Dulbecco’s modified eagle medium). In total, 5% FBS (fetal bovine serum), penicillin (100 IU/mL), and streptomycin ([…]) were then added to the medium in […] flasks, and kept in a CO2 incubator at 37 °C. The harvested cell was then diluted with a specific medium. Haemocytometer was used for the quantification of cells. After that, the culture of cell having concentration of 5x104 (cells/mL) was prepared, inoculated into 96-well plates (100 µL/well), and then incubated overnight. After incubation, the old medium was removed, and fresh medium (200 µL) was added. Then different concentrations of test compounds (ranging from 1 to 30 µM) were added. After incubation of 48 h, each well received 200 µL of MTT dye (0.5 mg/mL), and further incubated for a duration of 4 h. After 4 h, 100 µL of DMSO was introduced into each well of the 96-well plate. The reduction of MTT to formazan was measured by recording absorbance at 540 nm with the help of a microplate reader (SpectraMax 384, Molecular Devices, San Jose, CA, USA).

[2] = pH 7, E. coli TP, read-out: Thymidine Phosphorylase Inhibitory Activity % Inhibition

| SMILES | IC50 [1] [µM] | inhibition at 500 µM [1, 2] [%] | viability at 48 h (MTT cytotoxicity assay) [%] | IC50 at 48 h (MTT cytotoxicity assay; read-out: Cytotoxicity Studies IC50 ± SD) [µM] | inhibition at 500 µM ([1]; pH 7, read-out: Thymidine Phosphorylase Inhibitory Activity % Inhibition, E. coli TP) [%] |
| --- | --- | --- | --- | --- | --- |
| COC(=O)C1=C(C)NC(=O)NC1c1cc(Br)c(OC)c(OC)c1 (stereo not drawn) [Compound 22, Methyl 4-(3-bromo-4,5-dimethoxyphenyl)-6-methyl-2-oxo-1,2,3,4-tetrahydropyrimidine-5-carboxylate] | 394 ± 4.3 | 61.9 | 76 | – | – |
| COC(=O)C1=C(C)NC(=O)NC1c1ccc(O)cc1 (stereo not drawn) [Compound 13, Methyl 4-(4-hydroxyphenyl)-6-methyl-2-oxo-1,2,3,4-tetrahydropyrimidine-5-carboxylate] | 448.9 ± 4.1 | 56.2 | 72 | – | – |
| COC(=O)C1=C(C)NC(=O)NC1c1ccc(OC)cc1F (stereo not drawn) [Compound 14, Methyl 4-(2-fluoro-4-methoxyphenyl)-6-methyl-2-oxo-1,2,3,4-tetrahydropyrimidine-5-carboxylate] | 397.1 ± 0.1 | 68.4 | 71 | – | – |
| COC(=O)C1=C(C)NC(=O)NC1c1ccc(OC)cc1 (stereo not drawn) [Compound 5, Methyl 4-(4-methoxyphenyl)-6-methyl-2-oxo-1,2,3,4-tetrahydropyrimidine-5-carboxylate] | 387.4 ± 2 | 52.9 | 72 | – | – |
| COC(=O)C1=C(C)NC(=O)NC1c1ccc(Cl)cc1 (stereo not drawn) [Compound 34, Methyl 4-(4-chlorophenyl)-6-methyl-2-oxo-1,2,3,4-tetrahydropyrimidine-5-carboxylate] | 443.9 ± 0.9 | 66.3 | 72 | – | – |
| COC(=O)C1=C(C)NC(=O)NC1c1ccc(OC(C)=O)c(OC)c1 (stereo not drawn) [Compound 29, Methyl 4-(4-acetoxy-3-methoxyphenyl)-6-methyl-2-oxo-1,2,3,4-tetrahydropyrimidine-5-carboxylate] | 400.5 ± 0.6 | 76 | 80 | – | – |
| CCOc1ccc(C2NC(=O)NC(C)=C2C(=O)OC)cc1 (stereo not drawn) [Compound 2, Methyl 4-(4-ethoxyphenyl)-6-methyl-2-oxo-1,2,3,4-tetrahydropyrimidine-5-carboxylate] | 389 ± 6.2 | 78.2 | 67 | – | – |
| COC(=O)C1=C(C)NC(=O)NC1c1ccc(O)c(Cl)c1 (stereo not drawn) [Compound 28, Methyl 4-(3-chloro-4-hydroxyphenyl)-6-methyl-2-oxo-1,2,3,4-tetrahydropyrimidine-5-carboxylate] | 404.6 ± 1 | 67.5 | 95 | – | – |
| C[C@@H]1C[C@@H]([C@H](O)CC2CC(=O)NC(=O)C2)C(=O)[C@@H](C)C1 [Cycloheximide, reference compound] | – | – | 30 | 0.8 ± 0.2 | – |
| COC(=O)C1=C(C)NC(=O)NC1c1ccco1 (stereo not drawn) [Compound 9, Methyl 4-(furan-2-yl)-6-methyl-2-oxo-1,2,3,4-tetrahydropyrimidine-5-carboxylate] | 373.6 ± 2.2 | 78.9 | 72 | – | – |
| COC(=O)C1=C(C)NC(=O)NC1c1ccc(N(C)C)cc1 (stereo not drawn) [Compound 26, Methyl 4-(4-(dimethylamino)phenyl)-6-methyl-2-oxo-1,2,3,4-tetrahydropyrimidine-5-carboxylate] | 350 ± 3.7 | 92.3 | 57 | – | – |
| CCCCC1NC(=O)NC(C)=C1C(=O)OC (stereo not drawn) [Compound 10, Methyl 4-butyl-6-methyl-2-oxo-1,2,3,4-tetrahydropyrimidine-5-carboxylate] | 389 ± 0.6 | 92.7 | 66 | – | – |
| COC(=O)C1=C(C)NC(=O)NC1c1ccsc1 (stereo not drawn) [Compound 24, Methyl 6-methyl-2-oxo-4-(thiophen-3-yl)-1,2,3,4-tetrahydropyrimidine-5-carboxylate] | 350.6 ± 0.6 | 79.6 | 82 | – | – |
| N=C1CCCN1Cc1[nH]c(=O)[nH]c(=O)c1Cl [Tipiracil-HCl, reference compound] | – | – | – | – | 92 |
